This passage reports TGI results from PubChem BioAssay (NCI).

Some test systems named below: RPMI-8226 leukemia; MOLT-4 leukemia; NCI/ADR-RES ovarian; A498 renal; M14 melanoma; EKVX NSCLC; MCF7 breast; OVCAR-4 ovarian; HOP-92 NSCLC; SNB-75 CNS; CCRF-CEM leukemia; HL-60(TB) leukemia; PC-3 prostate; HCT-15 colon; MDA-N.
Holding throughout (assay): growth of human tumour cells (NCI), 48 h

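Briefly, cells in 96-well plates were exposed to five compound concentrations for 48 h, and endpoints were estimated by linear interpolation. TGI: concentration producing complete growth inhibition.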 A value given as a limit tells only on which side of the number the result lay.

In the case of `CCSc1nc(C)nc2c1sc1nc3ccccc3n12`, the TGI in the experiment with RPMI-8226 leukemia, in the experiment with MOLT-4 leukemia, in the experiment with NCI/ADR-RES ovarian, in the experiment with A498 renal, in the experiment on M14 melanoma and in the experiment with EKVX NSCLC was > 100 µM in each case. Moreover, the TGI in the experiment on MCF7 breast, in the experiment on OVCAR-4 ovarian, in the experiment on HOP-92 NSCLC, with SNB-75 CNS, with CCRF-CEM leukemia and in the experiment on HL-60(TB) leukemia was > 100 µM in each case. The TGI in the experiment with PC-3 prostate, with HCT-15 colon and in the experiment with MDA-N was > 100 µM in each case.

Turning to `O=C(NNC(=O)c1c(Cl)c(Cl)c(Cl)c(Cl)c1-c1nc2ccccc2[nH]1)c1ccc(Cl)cc1`, the TGI with RPMI-8226 leukemia is 98.5 µM; in the experiment on MOLT-4 leukemia, > 100 µM; in the experiment on NCI/ADR-RES ovarian, > 100 µM; in the experiment on A498 renal, > 100 µM; in the experiment on M14 melanoma, > 100 µM; in the experiment with EKVX NSCLC, > 100 µM. The TGI is > 100 µM with MCF7 breast; > 100 µM with OVCAR-4 ovarian; 84.7 µM with HOP-92 NSCLC; > 100 µM with SNB-75 CNS; 67.9 µM in the experiment with CCRF-CEM leukemia; > 100 µM in the experiment on HL-60(TB) leukemia. In addition, the TGI is > 100 µM with PC-3 prostate, > 100 µM in the experiment on HCT-15 colon and 53.4 µM with MDA-N.
